# From US20240116918A1, “SUBSTITUTED TRICYCLIC COMPOUND AS PRMT5 INHIBITOR AND USE THEREOF” (NANJING SANHOME PHARMACEUTICAL CO., LTD., priority 2019, published 2024)
# Assays:
# NCI-H358 cells = assay: In vitro cell activity, NCI-H358 cells, CCK-8; type: cell-based; conditions: NCI-H358, 168 h, human non-small cell lung cancer cells, 7 days
# Description: Test compounds: the compounds of the present invention prepared in the above example. Each compound was formulated into a 10 mM stock solution with DMSO, and finally diluted into 8 concentrations for detection, with the final concentrations being 33333.00 nM, 6666.60 nM, 1333.32 nM, 266.66 nM, 53.33 nM, 10.67 nM, 2.13 nM, and 0.43 nM for experiments in Z-138 cells.
# 2.1.3 NCI-H358 cell thawing: The cryovial for NCI-H358 cells was taken out from a liquid nitrogen tank and placed in a 37° C. water bath, and shaken gently for thawing as soon as possible. After thawing, the cryovial was taken out, and sterilized with an alcohol cotton ball, after which the cap was unscrewed. The cell fluid was drawn and injected into a centrifuge tube. 1 mL of 1640 medium containing 10% FBS was added, and mixed uniformly. The tube was placed in a centrifuge, and centrifuged at 1000 rpm for 5 min. Afterwards, the supernatant was discarded, and complete medium was added. The mixture was pipetted repeatedly until the cells were completely dispersed and resuspended. The mixture was inoculated in a petri dish at an appropriate concentration, and cultured in a CO2 incubator at 37° C., 5% CO2, and 95% humidified air.
# 2.2.3 NCI-H358 cell culture and passage: The cells grew to about 80-90%. The medium (1640 medium+10% FBS+1% penicillin-streptomycin+1 mM sodium pyruvate) was transferred to a 15 mL centrifuge tube, and centrifuged at 1000 rpm for 5 min. The supernatant was removed. The cells were resuspended in complete medium, and inoculated in a petri dish at the desired density. The dish was placed in a CO2 incubator at 37° C., 5% CO2, and 95% humid air. The culture medium was changed every 2-3 days or the passage was carried out, depending on the cell growth.
# After passage, NCI-H358 cells were resuspended in complete medium at the corresponding density, 1000 cells/well, and inoculated in a 96-well culture plate. The wells at the outer circumference were filled with 200 μL PBS to prevent the culture conditions of the inside plate wells from being too different from each other due to the faster evaporation of medium at the edge. The leftmost column of the 60 inner wells were blank wells, which were not added with cells, but filled with equal volume of PBS. The remaining 54 wells were subjected to cell plating with a multichannel pipette, to each well was added 100 μL. […]
# The first column of PBS was used as a blank control well, and 100 μL of CCK-8 was added synchronously thereto. […] The optimal detection time was determined according to the shade of color developed by CCK-8 (the optimal OD value for the DMSO group was about 1.0). […] The microplate reader software was opened, the detection parameters were adjusted, and the absorbance at 450 nm (OD value) was detected. […]
# ex vivo heart = assay: Ex vivo heart experiments, QT interval
IC50 (NCI-H358 cells) [nM],Compound,effect on the QT interval (ex vivo heart)
73.2,"CC(=O)N1CCC(Nc2cc(C(=O)NC[C@H](O)CN3CCc4ccccc4C3)ncn2)CC1 [Compound A, (S)-6-((1-Acetylpiperidin-4-yl)amino)-N-(3-(3,4-dihydroisoquinolin-2(1H)-yl)-2-hydroxypropyl)pyrimidine-4-carboxamide]",
15.3,"CC(=O)N1CCC(Nc2ccc3c(c2)C(=O)N(C[C@H](O)CN2CCc4ccccc4C2)CC32CC2)CC1 [Compound B, (R)-7′-((1-Acetylpiperidin-4-yl)amino)-2′-(3-(3,4-dihydroisoquinolin-2(1H)-yl)-2-hydroxypropyl)-2′,3′-dihydro-1′H-spiro[cyclopropane-1,4′-isoquinolin]-1′-one, reference compound]",significant prolongation of the QT interval
8.9,"CC(=O)N1CCC(Nc2cc3c(cn2)C2(CC2)CN(C[C@H](O)CN2CCc4ccccc4C2)C3=O)CC1 [Example 1, (R)-7′-((1-acetylpiperidin-4-yl)amino)-2′-(3-(3,4-dihydroisoquinolin-2(1H)-yl)-2-hydroxypropyl)-2′,3′-dihydro-1′H-spiro[cyclopropane-1,4′-[2,6]naphthyridin]-1′-one]",no effect on the QT interval

Compound,IC50 (NCI-H358 cells) [nM],effect on the QT interval (ex vivo heart)
"CC(=O)N1CC2(CC(Nc3cc4c(cn3)C3(CC3)CN(C[C@H](O)CN3CCc5ccccc5C3)C4=O)C2)C1 [Example 2, (R)-7′-((2-acetyl-2-azaspiro[3.3]hept-6-yl)amino)-2′-(3-(3,4-dihydroisoquinolin-2(1H)-yl)-2-hydroxypropyl)-2′,3′-dihydro-1′H-spiro[cyclopropane-1,4′-[2,6]naphthyridin]-1-one]",5.02,no effect on the QT interval
